Reference: US8324273B2 (XenoPort, Inc., priority 2006, dated 2012)

Key:
[1] = Intracolonic bioavailability of levodopa prodrugs in monkeys; format: in vivo, male Cynomologous monkeys; details: male, monkey, whole blood, intravenous, 10 mg; read-out: mean AUCinf
Procedure: Male Cynomologous monkeys weighing about 3.0 kg were used in the studies. Monkeys are fasted overnight prior to the study until 4 hours after dosing. Water was provided ad libitum.
Carbidopa was prepared as a solution (0.72 mg/mL) in sodium acetate buffer pH 5.16.
Blood samples were collected at pre-dose and at 0.17, 0.25, 0.5, 0.75, 1, 2, 4, 6, 8, 12, and 24 hours post-dose. About 0.3 mL of blood was collected in pre-chilled K2EDTA tubes containing 100 μL of 10% sodium metabisulfite. The contents were gently vortexed at low speed to ensure that the sampled blood came into contact with sodium metabisulfite while maintaining ice on the samples at all times. About 0.1 mL of the anticoagulated blood was added to each of 2 pre-chilled cryovials that each contained about 0.3 mL of quenching media (89.3% v/v methanol and 10.7% v/v 4N perchloric acid) within 5 minutes of bleed. Within 30 minutes of blood collection, the samples were centrifuged at about 3,000 rpm, 4° C., for 10 min. The samples were then stored at −70° C.
Blood samples were analyzed as described in Example 30.

[2] = Hygroscopicity of crystalline hydrogen fumarate (21) crystallized from various solvents; format: physicochemical
Procedure: (1R)-2-Acetyloxy-1-methylethyl (2S)-2-amino-3-[3,4-bis(ethoxycarbonyloxy)phenyl]propanoate hydrogen fumarate (21) was crystallized using the solvents listed in Table 1 on a 100 mg scale.

[3] = following oral administration of NB-355; cited from earlier work

**Q.** Which AUC(0-inf) [1] does the source give for `N[C@@H](Cc1ccc(O)c(O)c1)C(=O)O` [levodopa, L-3,4-dihydroxyphenylalanine] here?
**A.** The AUC(0-inf) was 3690 ng·h/mL.

**Q.** Which results are given for `CCOC(=O)Oc1ccc(C[C@H](N)C(=O)O[C@H](C)COC(C)=O)cc1OC(=O)OCC.O=C(O)/C=C/C(=O)O` [Compound 21, (1R)-2-Acetyloxy-1-methylethyl (2S)-2-Amino-3-[3,4-bis(ethoxycarbonyloxy)phenyl]propanoate Hydrogen Fumarate]?
**A.** Hygroscopicity ([2]; crystallized from acetonitrile-methyl tert-butyl ether): None; Hygroscopicity ([2]; crystallized from ethyl acetate): None; Hygroscopicity ([2]; crystallized from ethyl acetate-diisopropyl ether): None; Hygroscopicity ([2]; crystallized from ethyl acetate-methyl tert-butyl ether): None; melting point: 78.1 to 80.7 °C

**Q.** Which results are given for `CC(C)(C)C(=O)Oc1ccc(C[C@H](N)C(=O)O)cc1O` [NB-355]?
**A.** duration of circulating levodopa [3]: prolonged; plasma concentrations of levodopa [3]: low
